Test results as given in ChEMBL document CHEMBL4406853 (Eur J Med Chem, 2019).
Non-standard residues stand in square brackets, D forms with d. Residues, ends and D or L forms follow the SMILES beside them. ξ: configuration not given here. ξP = O=C(O)C1CCCN1

Assays:
Mu-type opioid receptor [1] = target: T1, Mu-type opioid receptor (Homo sapiens, UniProt P35372); experiment: Inhibition of mu opioid receptor (unknown origin) expressed in HEK293 cells assessed as inhibition of forskolin-stimulated intracellular cAMP accumulation preincubated for 30 mins followed by forskolin-stimulation and measured after 60 mins; assay type: functional, cell-based
T1 sequence (P35372 whole entry): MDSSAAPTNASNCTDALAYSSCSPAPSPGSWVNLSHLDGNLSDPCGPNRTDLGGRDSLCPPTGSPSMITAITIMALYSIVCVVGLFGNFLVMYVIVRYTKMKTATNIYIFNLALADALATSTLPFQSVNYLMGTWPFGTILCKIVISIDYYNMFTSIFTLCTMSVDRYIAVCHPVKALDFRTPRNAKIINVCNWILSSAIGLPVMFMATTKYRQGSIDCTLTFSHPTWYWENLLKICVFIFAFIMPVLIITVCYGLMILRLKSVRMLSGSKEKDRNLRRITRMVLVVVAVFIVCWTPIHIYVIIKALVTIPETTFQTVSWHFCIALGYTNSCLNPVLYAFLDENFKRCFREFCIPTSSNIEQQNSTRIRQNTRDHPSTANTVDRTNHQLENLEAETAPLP

Mu-type opioid receptor [2] = target: T1, Mu-type opioid receptor; experiment: Inhibition of mu opioid receptor (unknown origin) expressed in HEK293 cells assessed as inhibition of forskolin-stimulated […] preincubated for 30 mins followed by forskolin-stimulation and measured after 60 mins; assay type: cell-based
[3] = target: T2, Delta-type opioid receptor (Homo sapiens, UniProt P41143); experiment: Inhibition of delta opioid receptor (unknown origin) in presence of DAMGO by [35S]-GTPgammaS binding assay relative to control; assay type: functional
T2 sequence (P41143 whole entry): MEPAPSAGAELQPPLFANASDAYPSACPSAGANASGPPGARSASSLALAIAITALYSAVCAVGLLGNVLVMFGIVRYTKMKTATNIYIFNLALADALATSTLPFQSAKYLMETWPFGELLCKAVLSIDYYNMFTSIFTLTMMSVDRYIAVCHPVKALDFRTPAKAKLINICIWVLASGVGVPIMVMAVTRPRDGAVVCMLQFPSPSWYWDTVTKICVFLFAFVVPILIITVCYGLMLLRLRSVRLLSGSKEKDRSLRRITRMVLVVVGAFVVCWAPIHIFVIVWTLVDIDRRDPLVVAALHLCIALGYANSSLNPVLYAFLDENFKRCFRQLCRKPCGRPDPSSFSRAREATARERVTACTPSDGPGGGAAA

Mu-type opioid receptor [4] = target: T1, Mu-type opioid receptor; experiment: Inhibition of mu opioid receptor (unknown origin) in presence of DPDPE by [35S]-GTPgammaS binding assay; assay type: functional
[5] = target: T3, Kappa-type opioid receptor (Homo sapiens, UniProt P41145); experiment: Inhibition of kappa opioid receptor (unknown origin) in presence of DAMGO by [35S]-GTPgammaS binding assay relative to control; assay type: functional
T3 sequence (P41145 whole entry): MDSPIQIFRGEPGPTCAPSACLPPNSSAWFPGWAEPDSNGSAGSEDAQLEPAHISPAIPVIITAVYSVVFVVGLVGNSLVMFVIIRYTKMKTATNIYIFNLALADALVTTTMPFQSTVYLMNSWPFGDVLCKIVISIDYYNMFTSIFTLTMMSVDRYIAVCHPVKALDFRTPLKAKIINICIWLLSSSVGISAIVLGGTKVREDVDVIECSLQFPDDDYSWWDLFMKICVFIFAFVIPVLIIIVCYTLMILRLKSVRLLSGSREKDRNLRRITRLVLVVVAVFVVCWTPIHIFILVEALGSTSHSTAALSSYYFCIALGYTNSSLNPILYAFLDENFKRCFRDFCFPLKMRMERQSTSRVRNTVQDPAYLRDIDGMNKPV

[6] = target: T3, Kappa-type opioid receptor; experiment: Inhibition of kappa opioid receptor (unknown origin) in presence of DPDPE by [35S]-GTPgammaS binding assay; assay type: functional
[7] = target: T3, Kappa-type opioid receptor; experiment: Inhibition of kappa opioid receptor (unknown origin) in presence of DPDPE by [35S]-GTPgammaS binding assay relative to control; assay type: functional
[8] = target: T2, Delta-type opioid receptor; experiment: Inhibition of delta opioid receptor (unknown origin) in presence of DPDPE by [35S]-GTPgammaS binding assay; assay type: functional
[9] = target: T3, Kappa-type opioid receptor; experiment: Inhibition of kappa opioid receptor (unknown origin) in presence of DAMGO by [35S]-GTPgammaS binding assay; assay type: functional
[10] = target: T2, Delta-type opioid receptor; experiment: Inhibition of delta opioid receptor (unknown origin) in presence of DPDPE by [35S]-GTPgammaS binding assay relative to control; assay type: functional
Mu-type opioid receptor [11] = target: T1, Mu-type opioid receptor; experiment: Inhibition of mu opioid receptor (unknown origin) in presence of DAMGO by [35S]-GTPgammaS binding assay; assay type: functional
Mu-type opioid receptor [12] = target: T1, Mu-type opioid receptor; experiment: Inhibition of mu opioid receptor (unknown origin) in presence of DPDPE by [35S]-GTPgammaS binding assay relative to control; assay type: functional
[13] = target: T2, Delta-type opioid receptor; experiment: Inhibition of delta opioid receptor (unknown origin) in presence of DAMGO by [35S]-GTPgammaS binding assay; assay type: functional
[14] = target: T3, Kappa-type opioid receptor; experiment: Inhibition of kappa-opioid receptor (unknown origin) by [35S]-GTPgammaS binding assay; assay type: functional
Mu-type opioid receptor [15] = target: T1, Mu-type opioid receptor; experiment: Inhibition of mu-opioid receptor (unknown origin) by [35S]-GTPgammaS binding assay; assay type: functional
Mu-type opioid receptor [16] = target: T1, Mu-type opioid receptor; experiment: Displacement of [3H]DAMGO from mu opioid receptor (unknown origin) expressed in HEK293 cells after 1 hr by liquid scintillation counting; assay type: cell-based
[17] = target: T4, Kappa-type opioid receptor (Cavia porcellus, UniProt P41144); experiment: Inhibition of kappa opioid receptor in guinea pig brain membranes; assay type: cell membranes
T4 sequence (P41144 whole entry): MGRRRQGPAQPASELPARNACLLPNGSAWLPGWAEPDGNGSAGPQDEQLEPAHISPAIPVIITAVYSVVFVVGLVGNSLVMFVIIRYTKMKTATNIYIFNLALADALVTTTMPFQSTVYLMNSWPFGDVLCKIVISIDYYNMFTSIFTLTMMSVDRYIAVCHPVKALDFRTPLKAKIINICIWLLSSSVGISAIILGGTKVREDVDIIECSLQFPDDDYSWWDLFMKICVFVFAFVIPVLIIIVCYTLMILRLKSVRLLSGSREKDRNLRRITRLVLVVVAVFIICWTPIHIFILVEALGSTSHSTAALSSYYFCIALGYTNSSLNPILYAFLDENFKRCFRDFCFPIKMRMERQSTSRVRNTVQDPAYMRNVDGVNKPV

[18] = Agonist activity at delta opioid receptor in guinea pig brain membranes by [35S]-GTPgammaS binding assay; assay type: cell membranes, Cavia porcellus
Mu-type opioid receptor [19] = target: T5, Mu-type opioid receptor (Cavia porcellus, UniProt P97266); experiment: Inhibition of mu opioid receptor in guinea pig brain membranes; assay type: cell membranes
T5 sequence (P97266 whole entry): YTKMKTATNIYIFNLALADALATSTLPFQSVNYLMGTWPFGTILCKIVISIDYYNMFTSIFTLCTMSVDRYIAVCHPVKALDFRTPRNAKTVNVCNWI

Cavia porcellus = organism: Cavia porcellus; experiment: Agonist activity at delta opioid receptor in guinea pig brain membranes by [35S]-GTPgammaS binding assay relative to control; assay type: cell membranes
[20] = Inhibition of delta opioid receptor in guinea pig brain membranes; assay type: cell membranes, Cavia porcellus
[21] = target: Kappa-type opioid receptor (Cavia porcellus) (UniProt P41144); experiment: Agonist activity at kappa opioid receptor in guinea pig brain membranes by [35S]-GTPgammaS binding assay relative to control; assay type: functional, cell membranes
Kappa-type opioid receptor (Cavia porcellus), sequence (P41144 whole entry): as the sequence (P41144 whole entry) above

[22] = target: Mu-type opioid receptor (Cavia porcellus) (UniProt P97266); experiment: Agonist activity at mu opioid receptor in guinea pig brain membranes by [35S]-GTPgammaS binding assay relative to control; assay type: functional, cell membranes
Mu-type opioid receptor (Cavia porcellus), sequence (P97266 whole entry): as the sequence (P97266 whole entry) above

Mu-type opioid receptor [23] = target: T5, Mu-type opioid receptor; experiment: Agonist activity at mu opioid receptor in guinea pig brain membranes by [35S]-GTPgammaS binding assay; assay type: functional, cell membranes
[24] = target: T4, Kappa-type opioid receptor; experiment: Agonist activity at kappa opioid receptor in guinea pig brain membranes by [35S]-GTPgammaS binding assay; assay type: functional, cell membranes
Mus musculus = experiment: Antinociceptive activity in icv dosed mouse; assay type: functional
[25] = target: T2, Delta-type opioid receptor; experiment: Inhibition of delta opioid receptor (unknown origin) by MVD assay
Homo sapiens [26] = organism: Homo sapiens; experiment: Selectivity ratio of IC50 for mu opioid receptor (unknown origin) to IC50 for delta opioid receptor (unknown origin) by radioligand binding assay
Homo sapiens [27] = organism: Homo sapiens; experiment: Selectivity ratio of IC50 for mu opioid receptor (unknown origin) to IC50 for delta opioid receptor (unknown origin) by MVD assay
Mu-type opioid receptor [28] = target: T1, Mu-type opioid receptor; experiment: Inhibition of mu opioid receptor (unknown origin)
[29] = target: T2, Delta-type opioid receptor; experiment: Inhibition of full length delta opioid receptor (unknown origin) assessed as increase in beta arrestin 2 recruitment
[30] = target: T2, Delta-type opioid receptor; experiment: Inhibition of delta opioid receptor (unknown origin) by radioligand binding assay
[31] = target: T2, Delta-type opioid receptor; experiment: Inhibition of full length delta opioid receptor (unknown origin) assessed as increase in beta arrestin 1 recruitment
[32] = target: T2, Delta-type opioid receptor; experiment: Inhibition of full length delta opioid receptor (unknown origin) assessed as inhibition of forskolin-stimulated intracellular cAMP accumulation; assay type: functional, cell-based
Mu-type opioid receptor [33] = target: T1, Mu-type opioid receptor; experiment: Inhibition of mu opioid receptor (unknown origin) assessed as increase in beta arrestin recruitment relative to control; assay type: functional
Mu-type opioid receptor [34] = target: T1, Mu-type opioid receptor; experiment: Inhibition of mu opioid receptor (unknown origin) expressed in human […] cells assessed as increase in beta arrestin recruitment; assay type: functional, cell-based
[35] = target: T2, Delta-type opioid receptor; experiment: Inhibition of delta opioid receptor (unknown origin) assessed as increase in beta arrestin recruitment relative to control; assay type: functional
[36] = target: T2, Delta-type opioid receptor; experiment: Inhibition of delta opioid receptor (unknown origin) expressed in human […] cells assessed as increase in beta arrestin recruitment; assay type: functional, cell-based
[37] = target: T2, Delta-type opioid receptor; experiment: Inhibition of delta opioid receptor (unknown origin) expressed in human […] cells by [35S]-GTPgammaS binding assay; assay type: functional, cell-based
Mu-type opioid receptor [38] = target: T1, Mu-type opioid receptor; experiment: Inhibition of mu opioid receptor (unknown origin) expressed in human […] cells by [35S]-GTPgammaS binding assay relative to control; assay type: functional, cell-based
Mu-type opioid receptor [39] = target: T1, Mu-type opioid receptor; experiment: Inhibition of mu opioid receptor (unknown origin) expressed in human […] cells by [35S]-GTPgammaS binding assay; assay type: functional, cell-based
[40] = target: T2, Delta-type opioid receptor; experiment: Inhibition of delta opioid receptor (unknown origin) expressed in human […] cells by [35S]-GTPgammaS binding assay relative to control; assay type: functional, cell-based

Which EC50 (Mu-type opioid receptor [1]) does the source give for `CN(C)[C@H](CNC(=O)NCCc1ccsc1)Cc1cccc2ccccc12` here?
Its EC50 is 0.203 µM.

And the EC50 (Mu-type opioid receptor [2])?
The EC50 was 0.203 µM.

With `CN(C)[C@H](CNC(=O)NCCc1cccs1)Cc1cccc2ccccc12` as the compound, how does the EC50 (Mu-type opioid receptor [1]) read?
Its EC50 is 0.0524 to 0.0911 µM.

What about the EC50 (Mu-type opioid receptor [2]) of the same compound?
Its EC50 is 0.0524 to 0.0911 µM.

Which results are given for `CC[C@@H]1CN2CC[C@]3(Nc4cccc(OC)c4C3=O)[C@@H]2C[C@@H]1/C(=C\OC)C(=O)OC`?
Emax [3]: 82%; EC50 (Mu-type opioid receptor [4]): 0.0017 µM; IC50 (Mu-type opioid receptor [4]): 0.000282 µM; Emax [5]: 82%; EC50 [6]: 0.0017 µM; IC50 [6]: 0.132 µM; Emax [7]: 82%; EC50 [8]: 0.0017 µM; IC50 [8]: 0.00126 µM; EC50 [9]: 0.0017 µM; IC50 [9]: 0.132 µM; Emax [10]: 82%; EC50 (Mu-type opioid receptor [11]): 0.0017 µM; IC50 (Mu-type opioid receptor [11]): 0.00661 µM; Emax (Mu-type opioid receptor [12]): 82%; EC50 [13]: 0.0017 µM; IC50 [13]: 0.0017 µM

Which EC50 [14] does the source give for `CCC1(C)CC(CCNCc2ccccc2O)(c2ccccc2OC)CCO1` (stereo unspecified) here?
The EC50 was 3.4 µM.

What about the EC50 (Mu-type opioid receptor [15]) of the same compound?
Its EC50 is 1.1 µM.

Which EC50 (Mu-type opioid receptor [16]) does the source give for `C=C(C(N)=O)C(NC(=O)[C@H](Cc1ccccc1)NC(=O)[C@@H](C)N(C)C(=O)[C@@H](N)Cc1ccc(O)cc1)c1ccccc1` (stereo partly specified) here?
Its EC50 is 4 nM.

With `C=C(C(N)=O)C(NC(=O)[C@H](Cc1c[nH]c2ccccc12)NC(=O)[C@@H](C)N(C)C(=O)[C@@H](N)Cc1ccc(O)cc1)c1ccco1` (stereo partly specified) as the compound, how does the EC50 (Mu-type opioid receptor [16]) read?
The EC50 was 1.45 to 39 nM.

Which Ki [17] does the source give for `CC[C@@H]1CN2CCc3c([nH]c4cccc(OC)c34)[C@@H]2C[C@@H]1/C(=C\OC)C(=O)OC` here?
The Ki was 0.123 µM.

And the EC50 [18]?
The EC50 was 0.23 µM.

And the Ki (Mu-type opioid receptor [19])?
The Ki was 0.013 µM.

And the Emax (Cavia porcellus)?
Its Emax is 65%.

What about the Ki [20] of the same compound?
Its Ki is 0.155 µM.

And the Emax [21]?
The Emax was 65%.

And the Emax [22]?
The Emax was 65%.

What about the EC50 (Mu-type opioid receptor [23]) of the same compound?
The EC50 was 0.23 µM.

And the EC50 [24]?
The EC50 was 0.23 µM.

Which EC50 (Mu-type opioid receptor [1]) does the source give for `C[C@@H](Cc1ccsc1)NC(=O)NC[C@H](Cc1cccc2ccccc12)N(C)C` here?
Its EC50 is 0.456 µM.

And the EC50 (Mu-type opioid receptor [2])?
The EC50 was 0.456 µM.

Which ED50 (Mus musculus) does the source give for `Oc1cccc(CCN(CCc2ccccc2)CC2CCC2)c1` here?
Its ED50 is 3.74 nmol.

Which results are given for `CC[C@@H]1CN2CC[C@]3(Nc4cccc(-c5ccccc5)c4C3=O)[C@@H]2C[C@@H]1/C(=C\OC)C(=O)OC`?
Emax [3]: 123%; EC50 (Mu-type opioid receptor [4]): 0.0014 µM; Emax [5]: 123%; EC50 [6]: 0.0014 µM; Emax [7]: 123%; EC50 [8]: 0.0014 µM; EC50 [9]: 0.0014 µM; Emax [10]: 123%; EC50 (Mu-type opioid receptor [11]): 0.0014 µM; Emax (Mu-type opioid receptor [12]): 123%; EC50 [13]: 0.0014 µM

With `C=C(C(N)=O)C(NC(=O)[C@H](Cc1ccccc1)NC(=O)[C@@H](C)N(C)C(=O)C(N)Cc1c(C)cc(O)cc1C)c1ccccc1` (stereo partly specified) as the compound, how does the EC50 (Mu-type opioid receptor [16]) read?
The EC50 was 0.00177 to 0.00515 nM.

What about the Ki (Mu-type opioid receptor [16]) of the same compound?
The Ki was 0.0109 to 0.0511 nM.

Which results are given for `CC(C)C[C@H](NC(=O)[C@H](CC(=O)O)NC(=O)[C@H](CC(C)C)NC(=O)C1CCCN1C(=O)[C@@H](N)Cc1ccc(O)cc1)C(=O)O` (stereo partly specified) (H-Y[ξP]LDL-OH)?
IC50 [25]: 51 µM; Ratio IC50 (Homo sapiens [26]): 500; Ratio IC50 (Homo sapiens [27]): 500; IC50 (Mu-type opioid receptor [28]): 1090 µM; EC50 [29]: 79.4 µM; IC50 [30]: 2 µM; EC50 [31]: 79.4 µM; IC50 [32]: 6.31 µM

Which Emax (Mu-type opioid receptor [33]) does the source give for `CCOC(=O)C1(CCc2ccccc2)CCN(Cc2ccc(NC(C)=O)cc2)CC1` here?
Its Emax is 1200%.

What about the EC50 (Mu-type opioid receptor [34]) of the same compound?
The EC50 was 8.3 µM.

And the Emax [35]?
The Emax was 1200%.

What about the EC50 [36] of the same compound?
The EC50 was 8.3 µM.

What about the EC50 [37] of the same compound?
The EC50 was 0.054 µM.

And the Emax (Mu-type opioid receptor [38])?
Its Emax is 168%.

And the EC50 (Mu-type opioid receptor [39])?
Its EC50 is 0.054 µM.

What about the Emax [40] of the same compound?
Its Emax is 168%.
